The NIST ThermoML archive (doi:10.1021/je050376y)
± gives the expanded uncertainty stated by the source.

Key:
[1] = 101 kPa, Liquid
[2] = xn = mol fraction of the nth substance listed; details: 101 kPa, Liquid

## OCCO [1,2-ethanediol]
[1]; 308.15 K
  mass density: 1101.88 ± 0.44 kg/m3
  viscosity: 11.19 ± 0.21 mPa·s
[1]; 313.15 K
  mass density: 1098.33 ± 0.43 kg/m3
  viscosity: 9.444 ± 0.18 mPa·s
[1]; 318.15 K
  mass density: 1094.75 ± 0.43 kg/m3
  viscosity: 7.972 ± 0.16 mPa·s
[1]; 323.15 K
  mass density: 1091.16 ± 0.42 kg/m3
  viscosity: 6.794 ± 0.14 mPa·s
[1]; 333.15 K
  mass density: 1083.94 ± 0.42 kg/m3
  viscosity: 5.065 ± 0.11 mPa·s
[1]; 343.15 K
  mass density: 1074.53 ± 5 kg/m3
  viscosity: 3.879 ± 0.086 mPa·s
[1]; 353.15 K
  mass density: 1069.72 ± 0.4 kg/m3
  viscosity: 3.058 ± 0.069 mPa·s

## OCCO [1,2-ethanediol] + Cc1ccc(O)cc1
[2]; 308.15 K, x2 = 0
  mass density: 1101.88 ± 0.44 kg/m3
  viscosity: 11.19 ± 0.21 mPa·s
[2]; 313.15 K, x2 = 0
  mass density: 1098.33 ± 0.43 kg/m3
  viscosity: 9.444 ± 0.18 mPa·s
[2]; 318.15 K, x2 = 0
  mass density: 1094.75 ± 0.43 kg/m3
  viscosity: 7.972 ± 0.16 mPa·s
[2]; 323.15 K, x2 = 0
  mass density: 1091.16 ± 0.42 kg/m3
  viscosity: 6.794 ± 0.14 mPa·s
[2]; 333.15 K, x2 = 0
  mass density: 1083.94 ± 0.42 kg/m3
  viscosity: 5.065 ± 0.11 mPa·s
[2]; 343.15 K, x2 = 0
  mass density: 1074.53 ± 5 kg/m3
  viscosity: 3.879 ± 0.086 mPa·s
[2]; 353.15 K, x2 = 0
  mass density: 1069.72 ± 0.4 kg/m3
  viscosity: 3.058 ± 0.069 mPa·s

## Cc1ccc(O)cc1 [4-methylphenol]
[1]; 308.15 K
  mass density: 1021.98 ± 0.45 kg/m3
  viscosity: 8.444 ± 0.17 mPa·s
[1]; 313.15 K
  mass density: 1018.05 ± 0.45 kg/m3
  viscosity: 6.745 ± 0.14 mPa·s
[1]; 318.15 K
  mass density: 1014.09 ± 0.44 kg/m3
  viscosity: 5.471 ± 0.12 mPa·s
[1]; 323.15 K
  mass density: 1010.12 ± 0.44 kg/m3
  viscosity: 4.532 ± 0.1 mPa·s
[1]; 328.15 K
  mass density: 1006.57 ± 0.44 kg/m3
  viscosity: 3.888 ± 0.087 mPa·s
[1]; 333.15 K
  mass density: 1002.09 ± 0.43 kg/m3
  viscosity: 3.245 ± 0.073 mPa·s
[1]; 343.15 K
  mass density: 992.07 ± 5 kg/m3
  viscosity: 2.431 ± 0.056 mPa·s
[1]; 353.15 K
  mass density: 986.24 ± 0.43 kg/m3
  viscosity: 1.891 ± 0.044 mPa·s

## Cc1ccc(O)cc1 [4-methylphenol] + CO
[2]; 308.15 K, x1 = 0.1
  mass density: 837.27 ± 0.45 kg/m3
  viscosity: 0.701 ± 0.018 mPa·s
[2]; 308.15 K, x1 = 0.1999
  mass density: 881.21 ± 0.4 kg/m3
  viscosity: 0.977 ± 0.024 mPa·s
[2]; 308.15 K, x1 = 0.2998
  mass density: 914.53 ± 0.38 kg/m3
  viscosity: 1.333 ± 0.032 mPa·s
[2]; 308.15 K, x1 = 0.4
  mass density: 940.54 ± 0.37 kg/m3
  viscosity: 1.762 ± 0.041 mPa·s
[2]; 308.15 K, x1 = 0.4999
  mass density: 961.59 ± 0.37 kg/m3
  viscosity: 2.316 ± 0.053 mPa·s
[2]; 308.15 K, x1 = 0.5999
  mass density: 977.95 ± 0.38 kg/m3
  viscosity: 3.021 ± 0.068 mPa·s
[2]; 308.15 K, x1 = 0.6999
  mass density: 992.04 ± 0.39 kg/m3
  viscosity: 3.928 ± 0.088 mPa·s
[2]; 308.15 K, x1 = 0.8
  mass density: 1003.53 ± 0.41 kg/m3
  viscosity: 5.072 ± 0.11 mPa·s
[2]; 308.15 K, x1 = 0.8999
  mass density: 1013.73 ± 0.43 kg/m3
  viscosity: 6.535 ± 0.14 mPa·s
[2]; 308.15 K, x1 = 1
  mass density: 1021.98 ± 0.45 kg/m3
  viscosity: 8.444 ± 0.17 mPa·s
[2]; 313.15 K, x1 = 0.1
  mass density: 832.69 ± 0.46 kg/m3
  viscosity: 0.652 ± 0.017 mPa·s
[2]; 313.15 K, x1 = 0.1999
  mass density: 876.78 ± 0.41 kg/m3
  viscosity: 0.901 ± 0.023 mPa·s
[2]; 313.15 K, x1 = 0.2998
  mass density: 910.25 ± 0.38 kg/m3
  viscosity: 1.218 ± 0.03 mPa·s
[2]; 313.15 K, x1 = 0.4
  mass density: 936.35 ± 0.37 kg/m3
  viscosity: 1.588 ± 0.038 mPa·s
[2]; 313.15 K, x1 = 0.4999
  mass density: 957.48 ± 0.37 kg/m3
  viscosity: 2.044 ± 0.047 mPa·s
[2]; 313.15 K, x1 = 0.5999
  mass density: 973.9 ± 0.38 kg/m3
  viscosity: 2.631 ± 0.06 mPa·s
[2]; 313.15 K, x1 = 0.6999
  mass density: 988.04 ± 0.39 kg/m3
  viscosity: 3.36 ± 0.076 mPa·s
[2]; 313.15 K, x1 = 0.8
  mass density: 999.57 ± 0.4 kg/m3
  viscosity: 4.251 ± 0.094 mPa·s
[2]; 313.15 K, x1 = 0.8999
  mass density: 1009.79 ± 0.42 kg/m3
  viscosity: 5.364 ± 0.12 mPa·s
[2]; 313.15 K, x1 = 1
  mass density: 1018.05 ± 0.45 kg/m3
  viscosity: 6.745 ± 0.14 mPa·s
[2]; 318.15 K, x1 = 0.1
  mass density: 828.09 ± 0.46 kg/m3
  viscosity: 0.608 ± 0.016 mPa·s
[2]; 318.15 K, x1 = 0.1999
  mass density: 872.35 ± 0.41 kg/m3
  viscosity: 0.834 ± 0.021 mPa·s
[2]; 318.15 K, x1 = 0.2998
  mass density: 905.93 ± 0.39 kg/m3
  viscosity: 1.112 ± 0.027 mPa·s
[2]; 318.15 K, x1 = 0.4
  mass density: 932.16 ± 0.38 kg/m3
  viscosity: 1.435 ± 0.034 mPa·s
[2]; 318.15 K, x1 = 0.4999
  mass density: 953.35 ± 0.38 kg/m3
  viscosity: 1.817 ± 0.043 mPa·s
[2]; 318.15 K, x1 = 0.5999
  mass density: 969.84 ± 0.38 kg/m3
  viscosity: 2.31 ± 0.053 mPa·s
[2]; 318.15 K, x1 = 0.6999
  mass density: 984.03 ± 0.39 kg/m3
  viscosity: 2.894 ± 0.066 mPa·s
[2]; 318.15 K, x1 = 0.8
  mass density: 995.58 ± 0.4 kg/m3
  viscosity: 3.603 ± 0.081 mPa·s
[2]; 318.15 K, x1 = 0.8999
  mass density: 1005.83 ± 0.42 kg/m3
  viscosity: 4.44 ± 0.099 mPa·s
[2]; 318.15 K, x1 = 1
  mass density: 1014.09 ± 0.44 kg/m3
  viscosity: 5.471 ± 0.12 mPa·s
[2]; 323.15 K, x1 = 0.1
  mass density: 823.45 ± 0.47 kg/m3
  viscosity: 0.568 ± 0.015 mPa·s
[2]; 323.15 K, x1 = 0.1999
  mass density: 867.89 ± 0.42 kg/m3
  viscosity: 0.772 ± 0.02 mPa·s
[2]; 323.15 K, x1 = 0.2998
  mass density: 901.61 ± 0.39 kg/m3
  viscosity: 0.998 ± 0.025 mPa·s
[2]; 323.15 K, x1 = 0.4
  mass density: 927.93 ± 0.38 kg/m3
  viscosity: 1.305 ± 0.031 mPa·s
[2]; 323.15 K, x1 = 0.4999
  mass density: 949.21 ± 0.38 kg/m3
  viscosity: 1.633 ± 0.039 mPa·s
[2]; 323.15 K, x1 = 0.5999
  mass density: 965.76 ± 0.38 kg/m3
  viscosity: 2.043 ± 0.047 mPa·s
[2]; 323.15 K, x1 = 0.6999
  mass density: 980 ± 0.39 kg/m3
  viscosity: 2.527 ± 0.058 mPa·s
[2]; 323.15 K, x1 = 0.8
  mass density: 991.58 ± 0.4 kg/m3
  viscosity: 3.092 ± 0.07 mPa·s
[2]; 323.15 K, x1 = 0.8999
  mass density: 1001.84 ± 0.42 kg/m3
  viscosity: 3.754 ± 0.084 mPa·s
[2]; 323.15 K, x1 = 1
  mass density: 1010.12 ± 0.44 kg/m3
  viscosity: 4.532 ± 0.1 mPa·s
[2]; 328.15 K, x1 = 0.1
  mass density: 819.09 ± 0.48 kg/m3
  viscosity: 0.533 ± 0.015 mPa·s
[2]; 328.15 K, x1 = 0.1999
  mass density: 863.71 ± 0.42 kg/m3
  viscosity: 0.719 ± 0.019 mPa·s
[2]; 328.15 K, x1 = 0.2998
  mass density: 897.58 ± 0.4 kg/m3
  viscosity: 0.942 ± 0.024 mPa·s
[2]; 328.15 K, x1 = 0.4
  mass density: 924.03 ± 0.38 kg/m3
  viscosity: 1.192 ± 0.029 mPa·s
[2]; 328.15 K, x1 = 0.4999
  mass density: 945.39 ± 0.38 kg/m3
  viscosity: 1.477 ± 0.035 mPa·s
[2]; 328.15 K, x1 = 0.5999
  mass density: 962.01 ± 0.38 kg/m3
  viscosity: 1.821 ± 0.043 mPa·s
[2]; 328.15 K, x1 = 0.6999
  mass density: 976.3 ± 0.39 kg/m3
  viscosity: 2.229 ± 0.051 mPa·s
[2]; 328.15 K, x1 = 0.8
  mass density: 987.91 ± 0.4 kg/m3
  viscosity: 2.688 ± 0.061 mPa·s
[2]; 328.15 K, x1 = 0.8999
  mass density: 998.2 ± 0.42 kg/m3
  viscosity: 3.212 ± 0.073 mPa·s
[2]; 328.15 K, x1 = 1
  mass density: 1006.57 ± 0.44 kg/m3
  viscosity: 3.888 ± 0.087 mPa·s

## CO [methanol]
[1]; 308.15 K
  mass density: 776.92 ± 0.51 kg/m3
  viscosity: 0.476 ± 0.014 mPa·s
[1]; 313.15 K
  mass density: 772.13 ± 0.52 kg/m3
  viscosity: 0.445 ± 0.013 mPa·s
[1]; 318.15 K
  mass density: 767.31 ± 0.53 kg/m3
  viscosity: 0.421 ± 0.013 mPa·s
[1]; 323.15 K
  mass density: 762.46 ± 0.53 kg/m3
  viscosity: 0.395 ± 0.012 mPa·s
[1]; 328.15 K
  mass density: 757.85 ± 0.54 kg/m3
  viscosity: 0.372 ± 0.012 mPa·s

## CO [methanol] + Cc1ccc(O)cc1
[2]; 308.15 K, x2 = 0
  mass density: 776.92 ± 0.51 kg/m3
  viscosity: 0.476 ± 0.014 mPa·s
[2]; 313.15 K, x2 = 0
  mass density: 772.13 ± 0.52 kg/m3
  viscosity: 0.445 ± 0.013 mPa·s
[2]; 318.15 K, x2 = 0
  mass density: 767.31 ± 0.53 kg/m3
  viscosity: 0.421 ± 0.013 mPa·s
[2]; 323.15 K, x2 = 0
  mass density: 762.46 ± 0.53 kg/m3
  viscosity: 0.395 ± 0.012 mPa·s
[2]; 328.15 K, x2 = 0
  mass density: 757.85 ± 0.54 kg/m3
  viscosity: 0.372 ± 0.012 mPa·s
